Data published in US10442931B2, “Dye compound, composition comprising dye compound, and display device using dye compound” (Samsung Display Co. Ltd., priority 2017, dated 2019).

Tests used:
[1] = Maximum absorption wavelength band and absorbance, Shimadzu UV-1800 UV-vis spectrophotometer; assay type: physicochemical
Experimental: (§1) The maximum absorption wavelength bands and absorbance were measured using Shimadzu UV-1800 UV-vis. Spectrophotometer. Whether having lipid solubility was determined to be lipid soluble when the solubility of the compounds in MEK, PGMEA, cyclo-hexanone, or toluene was 1 wt % or more.

[2] = Whether having lipid solubility (solubility in MEK, PGMEA, cyclo-hexanone, or toluene); assay type: physicochemical
Experimental: as §1

Row | SMILES | Maximum absorption wavelength band [1] | Whether having lipid solubility [2]
1 | CCCCOc1ccc(/N=N/c2ccc(N3CCN(c4ccc(/N=N/c5ccc(OCCCC)cc5)cc4)CC3)cc2)cc1 [Compound A124] | 500-600 nm | ∘ (determined to be lipid soluble when the solubility of the compounds in MEK, PGMEA, cyclo-hexanone, or toluene was 1 wt % or more)
2 | CCN(CC)c1ccc(/N=N/c2ccc(N3CCN(c4ccc(/N=N/c5ccc(N(CC)CC)cc5O)cc4)CC3)cc2)c(O)c1 [Compound A132] | 500-600 nm | ∘ (determined to be lipid soluble when the solubility of the compounds in MEK, PGMEA, cyclo-hexanone, or toluene was 1 wt % or more)
3 | CCCCN(C)c1ccc(/N=N/c2ccc(N3CCN(c4ccc(/N=N/c5ccc(N(C)CCCC)cc5)cc4)CC3)cc2)cc1 [Compound A133] | 500-600 nm | ∘ (determined to be lipid soluble when the solubility of the compounds in MEK, PGMEA, cyclo-hexanone, or toluene was 1 wt % or more)
4 | C=C(C)C(=O)N(CC)c1ccc(/N=N/c2ccc(N3CCN(c4ccc(/N=N/c5ccc(N(CC)C(=O)C(=C)C)cc5C)cc4)CC3)cc2)c(C)c1 [Compound A138] | 500-600 nm | ∘ (determined to be lipid soluble when the solubility of the compounds in MEK, PGMEA, cyclo-hexanone, or toluene was 1 wt % or more)
5 | CCCCN(C)c1ccc(/N=N/c2ncc(-c3cnc(/N=N/c4ccc(N(C)CCCC)cc4)s3)s2)cc1 [Compound B117] | ≥ 600- nm | ∘ (determined to be lipid soluble when the solubility of the compounds in MEK, PGMEA, cyclo-hexanone, or toluene was 1 wt % or more)
6 | CCN(CC)c1ccc(/N=N/c2ncc(-c3cnc(/N=N/c4ccc(N(CC)CC)cc4O)s3)s2)c(O)c1 [Compound B123] | ≥ 600- nm | ∘ (determined to be lipid soluble when the solubility of the compounds in MEK, PGMEA, cyclo-hexanone, or toluene was 1 wt % or more)
7 | Cc1c(O)c(/N=N/c2ncc(-c3cnc(/N=N/c4cc5ccc(N)cc5c(C)c4O)s3)s2)cc2ccc(N)cc12 [Compound B127] | ≥ 600- nm | ∘ (determined to be lipid soluble when the solubility of the compounds in MEK, PGMEA, cyclo-hexanone, or toluene was 1 wt % or more)
8 | CCCCOc1ccc(/N=N/c2ccc(/C=C/c3ccc(/N=N/c4ccc(OCCCC)cc4)cc3)cc2)cc1 [Compound C103] | 400-500 nm | ∘ (determined to be lipid soluble when the solubility of the compounds in MEK, PGMEA, cyclo-hexanone, or toluene was 1 wt % or more)
9 | Nc1ccc(/N=N/c2ccc(-c3ccc(-c4ccc(/N=N/c5ccc(N)cc5)cc4)cc3)cc2)cc1 [Compound D110] | 500-600 nm | ∘ (determined to be lipid soluble when the solubility of the compounds in MEK, PGMEA, cyclo-hexanone, or toluene was 1 wt % or more)
